Laboratory results as given in US20090203707A1, “METHODS FOR TREATING PAIN” (priority 2008, published 2009).

Molecular target: SCN9A (Nav1.7) Na+ channel, α- and β1 subunits, in HEK293 cells (Homo sapiens, UniProt Q15858)
Assay: Whole-cell patch clamp, Nav1.7 peak INa in HEK293 cells (Example 1)
Details: 0.1 Hz; for Mean amplitude of Nav1.7 peak INa, fraction of control: −100 mV to 0 mV, 50 msec; for p of logistic fit (Hill coefficient nH) for block of Nav1.7 peak INa / x0 of logistic fit (IC50) for block of Nav1.7 peak INa: holding −100 mV to 0 mV

Sequence of SCN9A (Nav1.7) Na+ channel, α- and β1 subunits, in HEK293 cells (Q15858 whole entry): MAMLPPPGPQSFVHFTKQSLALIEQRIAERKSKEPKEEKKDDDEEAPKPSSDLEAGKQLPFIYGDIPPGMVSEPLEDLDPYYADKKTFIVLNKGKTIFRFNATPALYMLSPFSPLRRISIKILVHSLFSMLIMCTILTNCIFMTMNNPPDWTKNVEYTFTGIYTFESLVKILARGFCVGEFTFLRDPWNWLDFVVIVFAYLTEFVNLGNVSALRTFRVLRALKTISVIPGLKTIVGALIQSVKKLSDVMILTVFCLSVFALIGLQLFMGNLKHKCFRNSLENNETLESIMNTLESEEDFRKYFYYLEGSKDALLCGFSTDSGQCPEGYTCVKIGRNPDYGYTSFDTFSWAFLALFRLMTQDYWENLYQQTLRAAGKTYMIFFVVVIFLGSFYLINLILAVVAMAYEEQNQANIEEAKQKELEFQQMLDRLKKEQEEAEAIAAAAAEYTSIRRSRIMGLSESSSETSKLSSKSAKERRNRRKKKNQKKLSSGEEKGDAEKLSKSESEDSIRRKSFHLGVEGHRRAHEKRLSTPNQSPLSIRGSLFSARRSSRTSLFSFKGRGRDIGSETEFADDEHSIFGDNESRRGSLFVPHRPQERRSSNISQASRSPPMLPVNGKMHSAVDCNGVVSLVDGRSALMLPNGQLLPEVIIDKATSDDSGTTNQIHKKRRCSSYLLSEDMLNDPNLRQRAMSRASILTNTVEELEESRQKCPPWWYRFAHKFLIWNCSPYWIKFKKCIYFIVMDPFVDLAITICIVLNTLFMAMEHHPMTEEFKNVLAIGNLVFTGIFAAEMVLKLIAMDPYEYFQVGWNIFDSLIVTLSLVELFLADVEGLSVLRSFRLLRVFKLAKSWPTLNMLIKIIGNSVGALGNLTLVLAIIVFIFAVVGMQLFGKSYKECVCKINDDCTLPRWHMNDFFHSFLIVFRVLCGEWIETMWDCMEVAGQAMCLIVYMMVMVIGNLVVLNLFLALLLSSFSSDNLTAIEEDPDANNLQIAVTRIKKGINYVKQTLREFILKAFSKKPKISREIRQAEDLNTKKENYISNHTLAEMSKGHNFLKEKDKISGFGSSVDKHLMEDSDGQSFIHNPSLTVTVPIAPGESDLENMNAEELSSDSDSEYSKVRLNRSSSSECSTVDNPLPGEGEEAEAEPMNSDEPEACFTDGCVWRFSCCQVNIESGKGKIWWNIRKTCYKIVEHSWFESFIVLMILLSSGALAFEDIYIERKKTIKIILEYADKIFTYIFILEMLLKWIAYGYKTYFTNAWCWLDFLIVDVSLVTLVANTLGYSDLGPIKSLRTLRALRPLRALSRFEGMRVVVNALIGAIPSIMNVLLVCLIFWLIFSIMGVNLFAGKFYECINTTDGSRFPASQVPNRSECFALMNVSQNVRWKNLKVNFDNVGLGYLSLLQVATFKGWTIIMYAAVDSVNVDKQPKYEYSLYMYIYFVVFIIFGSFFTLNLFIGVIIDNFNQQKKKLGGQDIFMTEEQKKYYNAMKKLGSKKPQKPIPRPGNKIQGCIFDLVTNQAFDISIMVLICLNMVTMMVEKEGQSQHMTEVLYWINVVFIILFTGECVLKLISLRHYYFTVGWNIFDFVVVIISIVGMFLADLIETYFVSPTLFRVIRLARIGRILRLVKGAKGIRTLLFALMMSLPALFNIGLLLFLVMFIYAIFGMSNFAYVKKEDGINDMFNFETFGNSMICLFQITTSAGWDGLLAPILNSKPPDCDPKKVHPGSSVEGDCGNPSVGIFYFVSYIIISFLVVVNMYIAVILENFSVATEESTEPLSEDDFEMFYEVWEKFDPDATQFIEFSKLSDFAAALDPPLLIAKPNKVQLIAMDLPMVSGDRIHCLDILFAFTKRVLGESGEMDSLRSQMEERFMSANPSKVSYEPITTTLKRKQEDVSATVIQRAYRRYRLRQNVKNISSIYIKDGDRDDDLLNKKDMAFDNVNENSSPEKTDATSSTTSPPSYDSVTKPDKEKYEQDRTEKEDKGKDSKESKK
Sequence of SCN9A (Nav1.7) Na+ channel, α- and β1 subunits, in HEK293 cells (Q07699 19-218 partner): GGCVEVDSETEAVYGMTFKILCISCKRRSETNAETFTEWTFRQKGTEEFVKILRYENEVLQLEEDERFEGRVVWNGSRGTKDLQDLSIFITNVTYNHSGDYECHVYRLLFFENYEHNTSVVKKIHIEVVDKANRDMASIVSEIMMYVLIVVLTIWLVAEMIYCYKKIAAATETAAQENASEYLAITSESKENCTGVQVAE

SMILES | Mean amplitude of Nav1.7 peak INa, fraction of control (1 μM) | Mean amplitude of Nav1.7 peak INa, fraction of control (3 μM) | Mean amplitude of Nav1.7 peak INa, fraction of control (10 μM) | Mean amplitude of Nav1.7 peak INa, fraction of control (30 μM) | Mean amplitude of Nav1.7 peak INa, fraction of control (100 μM) | p of logistic fit (Hill coefficient nH) for block of Nav1.7 peak INa | x0 of logistic fit (IC50) for block of Nav1.7 peak INa
COc1ccccc1OC[C@@H](O)CN1CCN(CC(=O)Nc2c(C)cccc2C)CC1 [S-Ranolazine, (S)-(−)-N-(2,6-dimethylphenyl)-4-[2-hydroxy-3-(2-methoxyphenoxy)-propyl]-1-piperazineacetamide] | 0.8788 | 0.7285 | 0.5358 | 0.2883 | 0.06853 | 0.9409 | 9.433 μM
COc1ccccc1OC[C@H](O)CN1CCN(CC(=O)Nc2c(C)cccc2C)CC1 [R-Ranolazine, (R)-(+)-N-(2,6-dimethylphenyl)-4-[2-hydroxy-3-(2-methoxyphenoxy)-propyl]-1-piperazineacetamide] | 0.9252 | 0.8286 | 0.6336 | 0.2387 | 0.07855 | 1.212 | 11.33 μM
